Laboratory results taken from US11547301B2, “Methods for collecting and testing bacteria containing samples from within the gastrointestinal tract” (priority 2016, dated 2023).

Experiments:
[1] = tested on: Propionibacterium acnes and Staphylococcus epidermidis; details: aerobic and anaerobic organisms; cited from earlier work
[2] = tested on: dermatophytes, yeasts, moulds and other fungi; details: cited from earlier work
[3] = tested on: Gram-positive and Gram-negative bacteria; details: e.g., Escherichia coli, Proteus mirabilis, Pseudomonas aeruginosa, Staphylococcus and Streptococcus species; cited from earlier work
[4] = tested on: Escherichia coli ATCC 25922; test: OD (600 nm) of incubated bacterial samples under simulated GI conditions (bile, mucin, pH, yeast), 4 hour incubation; format: cell-based; details: Yeast+Amphotericin B
Protocol: (§1) Experiments were performed in order to simulate an ingestible device that contains sterile media that is inoculated with a sample of fluid from the GI tract and incubated in transit. […] The samples were also incubated under conditions of shear forces and temperature that simulate conditions of an ingestible device in transit within the GI tract.
(§2) The assay utilized 50 μL, sample volumes, under shear (110 rpm) and at body temperature (37° C.) over a 4 hour incubation period to simulate transit of an ingestible device within the GI tract. […] Experiments were conducted in quintuplicate.

[5] = tested on: Staphylococcus epidermidis ATCC 12228; test: as above; format: cell-based; details: Yeast Amphotericin B
Protocol: as §1, §2

C. albicans = test: Fungal contamination of incubated OD assay, with or without anti-fungal recovery media; format: cell-based; details: TSB containing 2.5 mg/L Amphotericin B
[6] = numerous murine models; cited from earlier work
human IL-6 = human IL-6 (Homo sapiens, UniProt P05231); details: cited from earlier work
Chain of human IL-6 (P05231 30-212): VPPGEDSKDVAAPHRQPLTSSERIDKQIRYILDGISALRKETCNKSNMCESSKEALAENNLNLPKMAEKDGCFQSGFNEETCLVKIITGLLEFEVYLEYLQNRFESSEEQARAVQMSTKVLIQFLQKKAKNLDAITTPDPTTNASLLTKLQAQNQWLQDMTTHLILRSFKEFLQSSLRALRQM

## O=C(O)CCCCCCCC(=O)O [Azelaic acid]
[1]
  antibacterial effects: antibacterial effects

## Cc1cc(C2CCCCC2)n(O)c(=O)c1 [Ciclopirox]
[2]
  antifungal activity: fungicidal, fungistatic and sporicidal activity
[3]
  activity against bacteria: effective

## C[C@@H]1[C@H](O)[C@@H](C)/C=C/C=C/C=C/C=C/C=C/C=C/C=C/[C@H](O[C@@H]2O[C@H](C)[C@@H](O)[C@H](N)[C@@H]2O)C[C@@H]2O[C@](O)(C[C@@H](O)C[C@@H](O)[C@H](O)CC[C@@H](O)C[C@@H](O)CC(=O)O[C@H]1C)C[C@H](O)[C@H]2C(=O)O [amphotericin B, Amphotericin B]
[4]; EC 10^3 initial concentration
  OD (600 nm) Mean: 0.0410
[4]; EC 10^4 initial concentration
  OD (600 nm) Mean: 0.0432
[4]; EC 10^5 initial concentration
  OD (600 nm) Mean: 0.0562
[4]; EC 10^6 initial concentration
  OD (600 nm) Mean: 0.1038
[4]; EC 10^7 initial concentration
  OD (600 nm) Mean: 0.1274
[5]; SE 10^3 initial concentration
  OD (600 nm) Mean: 0.0425
[5]; SE 10^4 initial concentration
  OD (600 nm) Mean: 0.0437
[5]; SE 10^5 initial concentration
  OD (600 nm) Mean: 0.0454
[5]; SE 10^6 initial concentration
  OD (600 nm) Mean: 0.0611
[5]; SE 10^7 initial concentration
  OD (600 nm) Mean: 0.0971
C. albicans
  Effect on background fungal growth (plate counts and optical density): reduced the background fungal growth

## L-glutamic acid polymer with L-alanine, L-lysine and L-tyrosine, acetate (salt) [Glatiramer acetate]
[6]
  inflammation and pathological manifestations of IBD: reduce inflammation and ameliorate the pathological manifestations

## siltuximab: chimeric, human-murine, immunoglobulin (Ig) Gκ mAb that binds and neutralizes human IL-6
Human IL-6
  binding and neutralization of human IL-6: high affinity and specificity
